Columns and labels:
Assay type in all cases: in vivo
[1] = system: Italian ryegrass (Lolium multiflorum); assay: Test B pre-/postemergence plant response
Method in brief: (§1)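 Seeds in loam–sand blend given preemergence soil spray; separately, plants at one- to two-leaf stage (2–10 cm) sprayed postemergence, compounds in non-phytotoxic solvent with surfactant. Injury rated visually versus untreated controls after ~10 days in greenhouse, 0 (no effect) to 100 (complete control).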

[2] = system: barnyardgrass (Echinochloa crus-galli); assay: Test B pre-/postemergence plant response
Method in brief: as §1

[3] = system: corn (Zea mays); assay: Test B pre-/postemergence plant response
Method in brief: as §1

[4] = system: giant foxtail (Setaria faberii); assay: Test B pre-/postemergence plant response
Method in brief: as §1

[5] = system: kochia (Kochia scoparia); assay: Test B pre-/postemergence plant response
Method in brief: as §1

[6] = system: pigweed (Amaranthus retroflexus); assay: Test B pre-/postemergence plant response
Method in brief: as §1

[7] = system: ragweed (common ragweed, Ambrosia elatior); assay: Test B pre-/postemergence plant response
Method in brief: as §1

[8] = system: wheat (Triticum aestivum); assay: Test B pre-/postemergence plant response
Method in brief: as §1

[9] = system: blackgrass (Alopecurus myosuroides); assay: Test B postemergence plant response
Method in brief: (§2)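 Weeds grown in loam soil/sand pots were sprayed postemergence at 2 to 10 cm height, one- to two-leaf stage. After approximately 10 days in greenhouse, injury was rated visually against untreated controls on a 0 (no effect) to 100 (complete control) scale; dash means no test result.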

[10] = system: galium (catchweed bedstraw, Galium aparine); assay: Test B postemergence plant response
Method in brief: as §2

[11] = system: barnyardgrass (Echinochloa crus-galli); assay: Test C flooded paddy test plant response; conditions: Flood, 250 g ai/ha; scale of 0 to 100 where 0 is no effect and 100 is complete control; 13 to 15 days
Method in brief: (§3)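 Visual injury ratings (0, no effect; 100, complete control) were assigned after 13 to 15 days in a greenhouse, comparing treated plants with controls. Compounds had been added straight into paddy water over 2-leaf-stage plants flooded to 3 cm.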

[12] = system: ducksalad (Heteranthera limosa); assay: Test C flooded paddy test plant response; conditions: Flood, 250 g ai/ha; scale of 0 to 100 where 0 is no effect and 100 is complete control; 13 to 15 days
Method in brief: as §3

[13] = system: rice (Oryza sativa); assay: Test C flooded paddy test plant response; conditions: Flood, 250 g ai/ha; scale of 0 to 100 where 0 is no effect and 100 is complete control; 13 to 15 days
Method in brief: as §3

[14] = system: small-flower umbrella sedge (Cyperus difformis); assay: Test C flooded paddy test plant response; conditions: Flood, 250 g ai/ha; scale of 0 to 100 where 0 is no effect and 100 is complete control; 13 to 15 days
Method in brief: as §3

[15] = 125 g ai/ha, postemergence, 0 to 100 scale, 0 no effect, 100 complete control
[16] = Postemergence, 500 g ai/ha, 0 to 100 scale (0 no effect, 100 complete control)
[17] = Preemergence, 125 g ai/ha, 0 to 100 scale (0 no effect, 100 complete control)
[18] = Preemergence, 500 g ai/ha, 0 to 100 scale where 0 is no effect and 100 is complete control
[19] = 31 g ai/ha, Preemergence, 0 to 100 scale where 0 is no effect and 100 is complete control
[20] = Postemergence, 31 g ai/ha, 0 to 100 scale (0 no effect, 100 complete control)

Structure (SMILES)	Plant response rating, Ryegrass, Italian [1, 15]	Ryegrass, Italian plant response rating [1, 17]	Plant response rating, Barnyardgrass [2, 15]	Barnyardgrass plant response rating [2, 17]	Plant response rating, Corn [3, 15]	Plant response rating, Foxtail, Giant [4, 15]	Foxtail, Giant plant response rating [4, 17]	Plant response rating, Kochia [5, 15]	Kochia plant response rating [5, 17]	Plant response rating, Pigweed [6, 15]	Pigweed plant response rating [6, 17]	Plant response rating, Ragweed [7, 15]	Ragweed plant response rating [7, 17]	Plant response rating, Wheat [8, 15]	Plant response rating, Blackgrass [9, 15]	Plant response rating, Galium [10, 15]	Barnyardgrass plant response rating [11]	Ducksalad plant response rating [12]	Rice plant response rating [13]	Sedge, Umbrella plant response rating [14]	other results
FC(F)(F)Cn1cnc(-c2ccccc2Oc2ncc(Cl)cn2)c1 [Compound 161]	0	0	0	0	0	0	0	0	0	0	0	0	0	0	0	0	0	0	0	0	Plant response rating, Ryegrass, Italian [1, 16]: 0; Plant response rating, Ryegrass, Italian [1, 18]: 0; Plant response rating, Barnyardgrass [2, 16]: 0; Plant response rating, Barnyardgrass [2, 18]: 0; Plant response rating, Corn [3, 16]: 0; Plant response rating, Foxtail, Giant [4, 16]: 0; Plant response rating, Foxtail, Giant [4, 18]: 0; Plant response rating, Kochia [5, 16]: 0; Plant response rating, Kochia [5, 18]: 0; Plant response rating, Pigweed [6, 16]: 0; Plant response rating, Pigweed [6, 18]: 0; Plant response rating, Ragweed [7, 16]: 0; Plant response rating, Ragweed [7, 18]: 0; Plant response rating, Wheat [8, 16]: 0; Plant response rating, Blackgrass [9, 16]: 0; Plant response rating, Galium [10, 16]: 0
Clc1cnc(Oc2ccccc2-c2cnccn2)nc1 [Compound 163]	0	0	0	0	10	10	0	50	0	30	30	30	40	0	20	30	0	0	0	0	Plant response rating, Ryegrass, Italian [1, 19]: 0; Plant response rating, Ryegrass, Italian [1, 20]: 0; Plant response rating, Barnyardgrass [2, 19]: 0; Plant response rating, Barnyardgrass [2, 20]: 0; Plant response rating, Corn [3, 20]: 0; Plant response rating, Foxtail, Giant [4, 19]: 0; Plant response rating, Foxtail, Giant [4, 20]: 0; Plant response rating, Kochia [5, 19]: 0; Plant response rating, Kochia [5, 20]: 10; Plant response rating, Pigweed [6, 19]: 0; Plant response rating, Pigweed [6, 20]: 20; Plant response rating, Ragweed [7, 19]: 0; Plant response rating, Ragweed [7, 20]: 30; Plant response rating, Wheat [8, 20]: 0; Plant response rating, Blackgrass [9, 20]: 20; Plant response rating, Galium [10, 20]: 20
Fc1cnc(Oc2ccccc2-c2cnccn2)nc1 [Compound 164]	0	0	0	0	0	0	0	0	0	30	30	30	0	0	0	30	0	0	0	0	Plant response rating, Ryegrass, Italian [1, 19]: 0; Plant response rating, Ryegrass, Italian [1, 20]: 0; Plant response rating, Barnyardgrass [2, 19]: 0; Plant response rating, Barnyardgrass [2, 20]: 0; Plant response rating, Corn [3, 20]: 0; Plant response rating, Foxtail, Giant [4, 19]: 0; Plant response rating, Foxtail, Giant [4, 20]: 0; Plant response rating, Kochia [5, 19]: 0; Plant response rating, Kochia [5, 20]: 0; Plant response rating, Pigweed [6, 19]: 0; Plant response rating, Pigweed [6, 20]: 0; Plant response rating, Ragweed [7, 19]: 0; Plant response rating, Ragweed [7, 20]: 20; Plant response rating, Wheat [8, 20]: 0; Plant response rating, Blackgrass [9, 20]: 0; Plant response rating, Galium [10, 20]: 10
Fc1cccc(Oc2ncc(Cl)cn2)c1-c1cnccn1 [Compound 165]	0	0	20	10	0	20	10	40	60	50	80	60	50	0	30	40	0	0	0	0	Plant response rating, Ryegrass, Italian [1, 19]: 0; Plant response rating, Ryegrass, Italian [1, 20]: 0; Plant response rating, Barnyardgrass [2, 19]: 0; Plant response rating, Barnyardgrass [2, 20]: 0; Plant response rating, Corn [3, 20]: 0; Plant response rating, Foxtail, Giant [4, 19]: 0; Plant response rating, Foxtail, Giant [4, 20]: 10; Plant response rating, Kochia [5, 19]: 0; Plant response rating, Kochia [5, 20]: 20; Plant response rating, Pigweed [6, 19]: 30; Plant response rating, Pigweed [6, 20]: 30; Plant response rating, Ragweed [7, 19]: 20; Plant response rating, Ragweed [7, 20]: 30; Plant response rating, Wheat [8, 20]: 0; Plant response rating, Blackgrass [9, 20]: 20; Plant response rating, Galium [10, 20]: 20
Fc1cnc(Oc2cccc(F)c2-c2cnccn2)nc1 [Compound 166]	0	0	0	0	10	0	0	0	0	30	60	30	20	0	0	30	0	0	0	0	Plant response rating, Ryegrass, Italian [1, 19]: 0; Plant response rating, Ryegrass, Italian [1, 20]: 0; Plant response rating, Barnyardgrass [2, 19]: 0; Plant response rating, Barnyardgrass [2, 20]: 0; Plant response rating, Corn [3, 20]: 0; Plant response rating, Foxtail, Giant [4, 19]: 0; Plant response rating, Foxtail, Giant [4, 20]: 0; Plant response rating, Kochia [5, 19]: 0; Plant response rating, Kochia [5, 20]: 0; Plant response rating, Pigweed [6, 19]: 40; Plant response rating, Pigweed [6, 20]: 20; Plant response rating, Ragweed [7, 19]: 0; Plant response rating, Ragweed [7, 20]: 10; Plant response rating, Wheat [8, 20]: 0; Plant response rating, Blackgrass [9, 20]: 0; Plant response rating, Galium [10, 20]: 20

Reference: US10131652B2, “Pyrimidinyloxy benzene derivatives as herbicides” (E. I. DU PONT DE NEMOURS AND COMPANY, priority 2014, dated 2018)
